Assay results from PubChem BioAssay AID328 (DTP/NCI, 2004).
Values joined by “and” are separate entries in the source; they are usually repeats but may differ in a detail not shown here. Equal values may be shown once. Inconclusive results and toxic doses are left out.

Tested on: BDF1 mice, P388 leukemia ip, median survival T/C
Test: NCI In Vivo Anticancer Drug Screen. Data for tumor model P388 Leukemia (intraperitoneal) in B6D2F1 (BDF1) mice
Settings: endpoint: median survival time, higher = longer survival
Procedure, shortened: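 In tumour-bearing mice, survival after compound treatment is set against the vehicle group and given as a quotient.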

[1] = dose: 100.0 mg/kg/injection, schedule: Q04DX003 (ip), vehicle: Klucel (hydroxypropylcellulose) (HPC)
[2] = dose: 200.0 mg/kg/injection, schedule: Q04DX003 (ip), vehicle: Klucel (hydroxypropylcellulose) (HPC)
[3] = dose: 400.0 mg/kg/injection, schedule: Q04DX003 (ip), vehicle: Klucel (hydroxypropylcellulose) (HPC)
[4] = dose: 150.0 mg/kg/injection, schedule: Q01DX009 (ip), vehicle: Klucel (hydroxypropylcellulose) (HPC)
[5] = dose: 50.0 mg/kg/injection, schedule: Q04DX003 (ip), vehicle: Klucel (hydroxypropylcellulose) (HPC)
[6] = dose: 100.0 mg/kg/injection, schedule: Q01DX009 (ip), vehicle: Klucel (hydroxypropylcellulose) (HPC)
[7] = dose: 50.0 mg/kg/injection, schedule: Q01DX009 (ip), vehicle: Klucel (hydroxypropylcellulose) (HPC)
[8] = dose: 25.0 mg/kg/injection, schedule: Q01DX009 (ip), vehicle: saline
[9] = dose: 50.0 mg/kg/injection, schedule: Q01DX009 (ip), vehicle: saline with Tween-80
[10] = dose: 12.5 mg/kg/injection, schedule: Q04DX003 (ip), vehicle: saline
[11] = dose: 25.0 mg/kg/injection, schedule: Q04DX003 (ip), vehicle: saline

## S=c1sc(-c2ccccc2)c[se]1
dose: 25.0 mg/kg/injection, schedule: Q01DX009 (ip), vehicle: saline + Tween-80 + alcohol
  T/C: 107 % of control
dose: 50.0 mg/kg/injection, schedule: Q01DX009 (ip), vehicle: saline + Tween-80 + alcohol
  T/C: 105 % of control

## CCC(C(O)c1cccs1)C(O)(C(F)(F)F)C(F)(F)F (stereo unspecified)
dose: 100.0 mg/kg/injection, schedule: Q04DX003 (ip), vehicle: saline with Tween-80
  T/C: 95 % of control
dose: 200.0 mg/kg/injection, schedule: Q04DX003 (ip), vehicle: saline with Tween-80
  T/C: 100 % of control

## c1ccc(CNCCOB(OCCNCc2ccccc2)OCCNCc2ccccc2)cc1
[1]
  T/C: 100 % of control
[2]
  T/C: 104 % of control
[3]
  T/C: 100 % of control

## CC1CN(C(=O)Nc2ccc(Cl)cc2)CC(C)O1 (stereo unspecified)
dose: 75.0 mg/kg/injection, schedule: Q01DX009 (ip), vehicle: Klucel (hydroxypropylcellulose) (HPC)
  T/C: 110 % of control
[4]
  T/C: 110 % of control
dose: 300.0 mg/kg/injection, schedule: Q01DX009 (ip), vehicle: Klucel (hydroxypropylcellulose) (HPC)
  T/C: 120 % of control

## CN=C(c1ccc(NC(=O)c2ccc(C(=O)Nc3ccc(C(=NC)N(C)C)cc3)cc2)cc1)N(C)C
dose: 2.0 mg/kg/injection, schedule: Q01DX010 (ip), vehicle: water
  T/C: 110 % of control
dose: 4.0 mg/kg/injection, schedule: Q01DX010 (ip), vehicle: water
  T/C: 115 % of control

## COC(=O)Nc1nc2ccc(C(=O)c3cccs3)cc2[nH]1
dose: 20.0 mg/kg/injection, schedule: Q01DX009 (ip), vehicle: saline with Tween-80
  T/C: 117 % of control
dose: 21.6 mg/kg/injection, schedule: Q04DX003 (ip), vehicle: other
  T/C: 167 % of control
dose: 22.0 mg/kg/injection, schedule: Q04DX003 (ip), vehicle: other
  T/C: 153 % of control
dose: 36.0 mg/kg/injection, schedule: Q04DX003 (ip), vehicle: other
  T/C: 199 % of control
dose: 40.0 mg/kg/injection, schedule: Q01DX009 (ip), vehicle: saline with Tween-80
  T/C: 183 % of control
[5]
  T/C: 163 % of control and 173 % of control
dose: 60.0 mg/kg/injection, schedule: Q01DX009 (ip), vehicle: saline with Tween-80
  T/C: 225 % of control
dose: 60.0 mg/kg/injection, schedule: Q04DX003 (ip), vehicle: other
  T/C: 274 % of control
dose: 75.0 mg/kg/injection, schedule: Q04DX003 (ip), vehicle: Klucel (hydroxypropylcellulose) (HPC)
  T/C: 173 % of control and 175 % of control
dose: 75.0 mg/kg/injection, schedule: Q04DX003 (ip), vehicle: saline with Tween-80
  T/C: 193 % of control
[1]
  T/C: 165 % of control and 184 % of control

## C(=C/c1ccc(/C=C/c2ccccc2)cc1)/c1ccccc1
dose: 65.0 mg/kg/injection, schedule: Q01DX009 (ip), vehicle: Klucel (hydroxypropylcellulose) (HPC)
  T/C: 100 % of control
dose: 66.7 mg/kg/injection, schedule: Q01DX009 (ip), vehicle: Klucel (hydroxypropylcellulose) (HPC)
  T/C: 111 % of control
[6]
  T/C: 94 % of control and 95 % of control
[1]
  T/C: 90 % of control
[4]
  T/C: 100 % of control and 116 % of control
[2]
  T/C: 110 % of control
dose: 400.0 mg/kg/injection, schedule: Q01DX009 (ip), vehicle: Klucel (hydroxypropylcellulose) (HPC)
  T/C: 113 % of control
[3]
  T/C: 105 % of control

## CNC(=S)N/N=C(/C)CCC(=O)O
dose: 6.75 mg/kg/injection, schedule: Q01DX009 (ip), vehicle: saline with Tween-80
  T/C: 87 % of control
dose: 13.5 mg/kg/injection, schedule: Q01DX009 (ip), vehicle: saline with Tween-80
  T/C: 88 % of control
dose: 27.0 mg/kg/injection, schedule: Q01DX009 (ip), vehicle: saline with Tween-80
  T/C: 86 % of control

## Cc1noc(-c2ccc([N+](=O)[O-])o2)n1
[7]
  T/C: 93 % of control
[6]
  T/C: 101 % of control

## CCOC(=O)CNCc1cccnc1
dose: 100.0 mg/kg/injection, schedule: Q04DX003 (ip), vehicle: saline
  T/C: 120 % of control
dose: 200.0 mg/kg/injection, schedule: Q04DX003 (ip), vehicle: saline
  T/C: 117 % of control
dose: 400.0 mg/kg/injection, schedule: Q04DX003 (ip), vehicle: saline
  T/C: 118 % of control

## CC(=O)C(C(=O)Nc1ccccc1)c1cc(NS(=O)(=O)c2ccccc2)ccc1O (stereo unspecified)
dose: 100.0 mg/kg/injection, schedule: Q01DX001 (ip), vehicle: saline with Tween-80
  T/C: 90 % of control
dose: 200.0 mg/kg/injection, schedule: Q01DX001 (ip), vehicle: saline with Tween-80
  T/C: 95 % of control
dose: 400.0 mg/kg/injection, schedule: Q01DX001 (ip), vehicle: saline with Tween-80
  T/C: 86 % of control

## CN(C)N=Nc1cn(C2OC(CO)C(O)C2O)c(=O)[nH]c1=O (stereo unspecified)
dose: 9.0 mg/kg/injection, schedule: Q01DX009 (ip), vehicle: saline
  T/C: 115 % of control
dose: 18.0 mg/kg/injection, schedule: Q01DX009 (ip), vehicle: saline
  T/C: 110 % of control
[8]
  T/C: 100 % of control
dose: 37.5 mg/kg/injection, schedule: Q01DX009 (ip), vehicle: saline
  T/C: 300 % of control and 120 % of control
dose: 50.0 mg/kg/injection, schedule: Q01DX009 (ip), vehicle: saline
  T/C: 120 % of control
dose: 75.0 mg/kg/injection, schedule: Q01DX009 (ip), vehicle: saline
  T/C: 300 % of control and 150 % of control
dose: 150.0 mg/kg/injection, schedule: Q01DX009 (ip), vehicle: saline
  T/C: 300 % of control and 180 % of control
dose: 400.0 mg/kg/injection, schedule: Q01DX009 (ip), vehicle: saline
  T/C: 150 % of control

## O=C(CBr)NCC1OC(n2cnc3c(=O)[nH]cnc32)C(O)C1O (stereo unspecified)
dose: 50.0 mg/kg/injection, schedule: Q01DX001 (ip), vehicle: Klucel (hydroxypropylcellulose) (HPC)
  T/C: 109 % of control
dose: 100.0 mg/kg/injection, schedule: Q01DX001 (ip), vehicle: Klucel (hydroxypropylcellulose) (HPC)
  T/C: 101 % of control
dose: 200.0 mg/kg/injection, schedule: Q01DX001 (ip), vehicle: Klucel (hydroxypropylcellulose) (HPC)
  T/C: 106 % of control

## NC(N)=Nc1cccc(C(F)(F)F)c1
[9]
  T/C: 94 % of control
dose: 100.0 mg/kg/injection, schedule: Q01DX009 (ip), vehicle: saline with Tween-80
  T/C: 100 % of control
dose: 200.0 mg/kg/injection, schedule: Q01DX009 (ip), vehicle: saline with Tween-80
  T/C: 109 % of control

## C[N+]1=C2CCCC2=C(N)CC1
dose: 6.25 mg/kg/injection, schedule: Q01DX009 (ip), vehicle: saline
  T/C: 110 % of control
dose: 12.5 mg/kg/injection, schedule: Q01DX009 (ip), vehicle: saline
  T/C: 115 % of control
[10]
  T/C: 95 % of control
[8]
  T/C: 100 % of control
[11]
  T/C: 100 % of control

## O=C(O)CCSc1nc2ccccc2s1
[5]
  T/C: 100 % of control
[1]
  T/C: 100 % of control
[2]
  T/C: 113 % of control

## N#CC(Nc1ccccc1)C1CC1c1ccccc1 (stereo unspecified)
dose: 12.5 mg/kg/injection, schedule: Q01DX009 (ip), vehicle: Klucel (hydroxypropylcellulose) (HPC)
  T/C: 90 % of control
dose: 25.0 mg/kg/injection, schedule: Q01DX009 (ip), vehicle: Klucel (hydroxypropylcellulose) (HPC)
  T/C: 90 % of control
[7]
  T/C: 90 % of control

## O=c1oc2ccccc2n1Cc1ccc(Cl)cc1
dose: 25.0 mg/kg/injection, schedule: Q01DX005 (ip), vehicle: saline with Tween-80
  T/C: 92 % of control
dose: 50.0 mg/kg/injection, schedule: Q01DX005 (ip), vehicle: saline with Tween-80
  T/C: 99 % of control
dose: 200.0 mg/kg/injection, schedule: Q01DX005 (ip), vehicle: saline with Tween-80
  T/C: 94 % of control

## Nc1cccnc1
dose: 5.0 mg/kg/injection, schedule: Q01DX009 (ip), vehicle: saline
  T/C: 100 % of control
dose: 10.0 mg/kg/injection, schedule: Q01DX009 (ip), vehicle: saline
  T/C: 110 % of control

## COc1cc2c(c(OC)c1OC)CCC1(C)C(=O)NN=C21 (stereo unspecified)
[6]
  T/C: 108 % of control
dose: 200.0 mg/kg/injection, schedule: Q01DX009 (ip), vehicle: Klucel (hydroxypropylcellulose) (HPC)
  T/C: 106 % of control

## O=[N+]([O-])c1cccc2c1ccc[n+]2Cc1ccccc1
dose: 12.5 mg/kg/injection, schedule: Q01DX009 (ip), vehicle: saline with Tween-80
  T/C: 112 % of control
dose: 25.0 mg/kg/injection, schedule: Q01DX009 (ip), vehicle: saline with Tween-80
  T/C: 115 % of control
[9]
  T/C: 122 % of control

## O=C(Cn1ccc(=O)[nH]c1=O)Nc1nccs1
dose: 3.12 mg/kg/injection, schedule: Q04DX003 (ip), vehicle: saline
  T/C: 93 % of control
dose: 6.25 mg/kg/injection, schedule: Q04DX003 (ip), vehicle: saline
  T/C: 107 % of control and 121 % of control
[10]
  T/C: 110 % of control and 121 % of control
[11]
  T/C: 109 % of control and 121 % of control
